Values after ≈ are worked out from the molar mass of the structure shown. Active and inactive are the calls of the source. The calls are words filed in the database; no cut-off is given here.
Key:
Escherichia coli [1] = assay: Antibacterial activity against Escherichia coli K-12 MG1655 after 16 hrs by microbroth dilution method; type: functional; conditions: K-12 MG1655, 16 h
[2] = biological target: tRNA threonylcarbamoyladenosine biosynthesis protein TsaE (Escherichia coli (strain K12)) (UniProt P0AF67); assay: Inhibition of IPTG-stimulated Escherichia coli K-12 yjeE at 8 fold MIC by microarray analysis
[3] = biological target: T1, Outer membrane protein TolC (Escherichia coli (strain K12)) (UniProt P02930); assay: Inhibition of IPTG-stimulated Escherichia coli K-12 tolC at 4 fold MIC by microarray analysis
T1 sequence (whole entry): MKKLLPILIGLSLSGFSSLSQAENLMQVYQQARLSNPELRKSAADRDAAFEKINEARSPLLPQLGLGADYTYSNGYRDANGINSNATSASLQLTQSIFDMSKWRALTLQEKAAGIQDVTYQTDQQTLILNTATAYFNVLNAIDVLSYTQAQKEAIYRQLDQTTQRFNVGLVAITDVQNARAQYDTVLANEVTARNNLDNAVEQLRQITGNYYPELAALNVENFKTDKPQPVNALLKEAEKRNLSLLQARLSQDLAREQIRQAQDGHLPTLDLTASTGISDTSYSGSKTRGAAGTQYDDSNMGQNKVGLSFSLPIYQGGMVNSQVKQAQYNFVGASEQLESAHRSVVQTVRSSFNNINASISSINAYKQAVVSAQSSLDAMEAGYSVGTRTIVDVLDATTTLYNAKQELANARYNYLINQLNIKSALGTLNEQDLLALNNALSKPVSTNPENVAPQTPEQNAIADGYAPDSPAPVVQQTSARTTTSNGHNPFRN

[4] = biological target: Small ribosomal subunit protein bS18 (Escherichia coli (strain K12)) (UniProt P0A7T7); assay: Inhibition of IPTG-stimulated Escherichia coli K-12 rpSR at 4 fold MIC by microarray analysis
[5] = biological target: Small ribosomal subunit protein bS18 (Escherichia coli (strain K12)) (UniProt P0A7T7); assay: Inhibition of IPTG-stimulated Escherichia coli K-12 rpSR at 8 fold MIC by microarray analysis
[6] = biological target: tRNA threonylcarbamoyladenosine biosynthesis protein TsaE (Escherichia coli (strain K12)) (UniProt P0AF67); assay: Inhibition of IPTG-stimulated Escherichia coli K-12 yjeE at 4 fold MIC by microarray analysis
[7] = biological target: T1, Outer membrane protein TolC (Escherichia coli (strain K12)); assay: Inhibition of IPTG-stimulated Escherichia coli K-12 tolC at 8 fold MIC by microarray analysis
[8] = biological target: T2, Dihydrofolate synthase/folylpolyglutamate synthase (Escherichia coli (strain K12)) (UniProt P08192); assay: Inhibition of IPTG-stimulated Escherichia coli K-12 folC at 4 fold MIC by microarray analysis
T2 sequence (whole entry): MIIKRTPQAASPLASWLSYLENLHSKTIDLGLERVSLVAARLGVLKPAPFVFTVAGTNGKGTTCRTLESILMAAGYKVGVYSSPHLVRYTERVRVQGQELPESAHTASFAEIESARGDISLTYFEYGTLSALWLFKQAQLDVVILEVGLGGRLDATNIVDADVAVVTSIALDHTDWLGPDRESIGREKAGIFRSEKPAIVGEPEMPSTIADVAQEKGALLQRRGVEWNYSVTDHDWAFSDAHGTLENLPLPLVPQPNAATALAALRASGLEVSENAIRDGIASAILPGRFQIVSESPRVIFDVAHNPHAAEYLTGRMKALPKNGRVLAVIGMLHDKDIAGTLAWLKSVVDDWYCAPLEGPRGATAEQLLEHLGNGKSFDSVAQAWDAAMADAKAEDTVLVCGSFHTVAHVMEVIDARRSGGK

[9] = biological target: tRNA(Ile)-lysidine synthase (Escherichia coli (strain K12)) (UniProt P52097); assay: Inhibition of IPTG-stimulated Escherichia coli K-12 mesJ at 4 fold MIC by microarray analysis
[10] = biological target: UDP-N-acetylmuramoylalanine--D-glutamate ligase (Escherichia coli K-12) (UniProt P14900); assay: Inhibition of IPTG-stimulated Escherichia coli K-12 murD at 4 fold MIC by microarray analysis
[11] = biological target: T3, Uncharacterized protein YdiL (Escherichia coli (strain K12)) (UniProt P76196); assay: Inhibition of IPTG-stimulated Escherichia coli K-12 ydiL at 16 fold MIC by microarray analysis
T3 sequence (whole entry): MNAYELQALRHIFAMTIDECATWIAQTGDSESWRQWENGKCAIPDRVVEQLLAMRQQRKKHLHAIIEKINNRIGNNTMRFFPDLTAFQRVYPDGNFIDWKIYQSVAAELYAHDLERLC

[12] = biological target: Cell division protein FtsX (Escherichia coli (strain K12)) (UniProt P0AC30); assay: Inhibition of IPTG-stimulated Escherichia coli K-12 ftsX at 4 fold MIC by microarray analysis
[13] = biological target: 4-hydroxy-tetrahydrodipicolinate reductase (Escherichia coli (strain K12)) (UniProt P04036); assay: Inhibition of IPTG-stimulated Escherichia coli K-12 dapB at 4 fold MIC by microarray analysis
[14] = biological target: T3, Uncharacterized protein YdiL (Escherichia coli (strain K12)); assay: Inhibition of IPTG-stimulated Escherichia coli K-12 ydiL at 8 fold MIC by microarray analysis
[15] = biological target: D-alanine--D-alanine ligase B (Escherichia coli K-12) (UniProt P07862); assay: Inhibition of IPTG-stimulated Escherichia coli K-12 ddlB at 4 fold MIC by microarray analysis
[16] = biological target: Large ribosomal subunit protein uL2 (Escherichia coli (strain K12)) (UniProt P60422); assay: Inhibition of IPTG-stimulated Escherichia coli K-12 rplB at 4 fold MIC by microarray analysis
[17] = biological target: Transcriptional regulatory protein BaeR (Escherichia coli (strain K12)) (UniProt P69228); assay: Inhibition of IPTG-stimulated Escherichia coli K-12 baeR at 4 fold MIC by microarray analysis
[18] = biological target: Protein YdfW (Escherichia coli (strain K12)) (UniProt P76164); assay: Inhibition of IPTG-stimulated Escherichia coli K-12 ydfW at 4 fold MIC by microarray analysis
[19] = biological target: T1, Outer membrane protein TolC (Escherichia coli (strain K12)); assay: Inhibition of IPTG-stimulated Escherichia coli K-12 tolC at 16 fold MIC by microarray analysis
[20] = biological target: Antitoxin YefM (Escherichia coli (strain K12)) (UniProt P69346); assay: Inhibition of IPTG-stimulated Escherichia coli K-12 yefM at 4 fold MIC by microarray analysis
[21] = biological target: Glutamyl-tRNA reductase (Escherichia coli (strain K12)) (UniProt P0A6X1); assay: Inhibition of IPTG-stimulated Escherichia coli K-12 hemA at 4 fold MIC by microarray analysis
[22] = biological target: Cell shape-determining protein MreC (Escherichia coli (strain K12)) (UniProt P16926); assay: Inhibition of IPTG-stimulated Escherichia coli K-12 mreC at 4 fold MIC by microarray analysis
[23] = biological target: Long-chain fatty acid transport protein (Escherichia coli (strain K12)) (UniProt P10384); assay: Inhibition of IPTG-stimulated Escherichia coli K-12 fadl at 4 fold MIC by microarray analysis
[24] = biological target: Intermembrane phospholipid transport system binding protein MlaB (Escherichia coli (strain K12)) (UniProt P64602); assay: Inhibition of IPTG-stimulated Escherichia coli K-12 yrbB at 4 fold MIC by microarray analysis
[25] = biological target: Thymidylate kinase (Escherichia coli (strain K12)) (UniProt P0A720); assay: Inhibition of IPTG-stimulated Escherichia coli K-12 tmk at 4 fold MIC by microarray analysis
[26] = biological target: Multifunctional CCA protein (Escherichia coli (strain K12)) (UniProt P06961); assay: Inhibition of IPTG-stimulated Escherichia coli K-12 cca at 4 fold MIC by microarray analysis
[27] = biological target: Large ribosomal subunit protein bL28 (Escherichia coli (strain K12)) (UniProt P0A7M2); assay: Inhibition of IPTG-stimulated Escherichia coli K-12 rpmB at 4 fold MIC by microarray analysis
[28] = biological target: Glycerate 3-kinase (Escherichia coli (strain K12)) (UniProt P77364); assay: Inhibition of IPTG-stimulated Escherichia coli K-12 glxK at 4 fold MIC by microarray analysis
[29] = biological target: UDP-N-acetylglucosamine 1-carboxyvinyltransferase (Escherichia coli K-12) (UniProt P0A749); assay: Inhibition of IPTG-stimulated Escherichia coli K-12 murA at 4 fold MIC by microarray analysis
[30] = biological target: Phosphatidylglycerol--prolipoprotein diacylglyceryl transferase (Escherichia coli (strain K12)) (UniProt P60955); assay: Inhibition of IPTG-stimulated Escherichia coli K-12 umpA at 4 fold MIC by microarray analysis
Escherichia coli [31] = assay: Antibacterial activity against Escherichia coli ATCC 25922 after 16 hrs by microbroth dilution method; type: functional; conditions: ATCC 25922, 16 h
[32] = test system: Stenotrophomonas maltophilia; assay: Antibacterial activity against Stenotrophomonas maltophilia B22020 after 16 hrs by microbroth dilution method; type: functional; conditions: B22020, 16 h
HeLa = assay: Cytotoxicity against human HeLa cells after 24 hrs by Cell Titre-Glo luminescent assay; type: cell-based
Candida albicans = assay: Antifungal activity against Candida albicans after 16 hrs by microbroth dilution method; type: functional
Bacillus subtilis = assay: Antibacterial activity against Bacillus subtilis 168 after 16 hrs by microbroth dilution method; type: functional; conditions: subsp. subtilis str. 168, 16 h
Burkholderia cepacia = assay: Antibacterial activity against Burkholderia cepacia B154408 after 16 hrs by microbroth dilution method; type: functional; conditions: B154408, 16 h
Staphylococcus aureus = assay: Antibacterial activity against Staphylococcus aureus after 16 hrs by microbroth dilution method; type: functional
Micrococcus luteus = assay: Antibacterial activity against Micrococcus luteus after 16 hrs by microbroth dilution method; type: functional
Pseudomonas aeruginosa = assay: Antibacterial activity against Pseudomonas aeruginosa PAO1 after 16 hrs by microbroth dilution method; type: functional; conditions: PAO1, 16 h

Chain of UDP-N-acetylmuramoylalanine--D-glutamate ligase (Escherichia coli K-12) (P14900 whole entry): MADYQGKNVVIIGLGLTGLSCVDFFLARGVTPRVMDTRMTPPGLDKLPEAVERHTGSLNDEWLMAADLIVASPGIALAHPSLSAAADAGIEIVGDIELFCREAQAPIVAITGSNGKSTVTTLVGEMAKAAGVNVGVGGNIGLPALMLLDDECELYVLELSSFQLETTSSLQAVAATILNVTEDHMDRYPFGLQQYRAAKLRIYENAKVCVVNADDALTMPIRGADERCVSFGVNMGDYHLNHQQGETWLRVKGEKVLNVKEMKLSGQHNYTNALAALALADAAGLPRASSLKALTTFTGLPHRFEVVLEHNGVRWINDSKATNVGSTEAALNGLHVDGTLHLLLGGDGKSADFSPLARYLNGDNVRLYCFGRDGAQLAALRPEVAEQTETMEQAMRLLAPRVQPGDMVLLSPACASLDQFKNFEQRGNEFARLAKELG
Chain of Thymidylate kinase (Escherichia coli (strain K12)) (P0A720 whole entry): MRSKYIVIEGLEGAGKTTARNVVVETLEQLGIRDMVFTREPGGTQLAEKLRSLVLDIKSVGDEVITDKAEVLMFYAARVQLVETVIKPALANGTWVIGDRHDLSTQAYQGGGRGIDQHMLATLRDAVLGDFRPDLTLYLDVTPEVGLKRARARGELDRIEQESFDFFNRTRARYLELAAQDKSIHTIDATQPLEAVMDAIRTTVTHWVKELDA
Chain of Intermembrane phospholipid transport system binding protein MlaB (Escherichia coli (strain K12)) (P64602 whole entry): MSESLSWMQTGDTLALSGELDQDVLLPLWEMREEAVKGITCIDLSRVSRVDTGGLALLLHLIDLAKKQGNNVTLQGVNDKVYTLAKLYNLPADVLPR
Chain of Cell shape-determining protein MreC (Escherichia coli (strain K12)) (P16926 whole entry): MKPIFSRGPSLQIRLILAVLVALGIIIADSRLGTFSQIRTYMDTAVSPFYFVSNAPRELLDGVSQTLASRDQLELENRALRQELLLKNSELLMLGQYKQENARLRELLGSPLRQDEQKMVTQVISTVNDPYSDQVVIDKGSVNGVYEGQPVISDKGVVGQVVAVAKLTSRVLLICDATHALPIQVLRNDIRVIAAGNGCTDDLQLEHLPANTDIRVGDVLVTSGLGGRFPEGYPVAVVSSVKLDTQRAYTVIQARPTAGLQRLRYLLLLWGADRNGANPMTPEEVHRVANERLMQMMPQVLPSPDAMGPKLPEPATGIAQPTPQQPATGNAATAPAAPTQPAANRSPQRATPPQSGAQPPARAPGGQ
Chain of Protein YdfW (Escherichia coli (strain K12)) (P76164 whole entry): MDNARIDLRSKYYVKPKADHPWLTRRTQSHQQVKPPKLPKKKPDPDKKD
Chain of Multifunctional CCA protein (Escherichia coli (strain K12)) (P06961 whole entry): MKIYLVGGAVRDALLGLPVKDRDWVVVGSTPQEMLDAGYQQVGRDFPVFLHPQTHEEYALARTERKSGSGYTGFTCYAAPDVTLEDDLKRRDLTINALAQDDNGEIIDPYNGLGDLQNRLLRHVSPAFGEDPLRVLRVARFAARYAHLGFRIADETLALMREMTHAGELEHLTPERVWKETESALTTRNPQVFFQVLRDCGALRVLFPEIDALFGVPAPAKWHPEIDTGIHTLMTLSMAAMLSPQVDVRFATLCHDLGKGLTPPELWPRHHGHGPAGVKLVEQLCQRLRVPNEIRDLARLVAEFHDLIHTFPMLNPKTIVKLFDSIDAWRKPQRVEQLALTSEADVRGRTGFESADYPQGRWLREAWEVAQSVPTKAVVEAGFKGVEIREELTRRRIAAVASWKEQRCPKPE
Chain of Glycerate 3-kinase (Escherichia coli (strain K12)) (P77364 whole entry): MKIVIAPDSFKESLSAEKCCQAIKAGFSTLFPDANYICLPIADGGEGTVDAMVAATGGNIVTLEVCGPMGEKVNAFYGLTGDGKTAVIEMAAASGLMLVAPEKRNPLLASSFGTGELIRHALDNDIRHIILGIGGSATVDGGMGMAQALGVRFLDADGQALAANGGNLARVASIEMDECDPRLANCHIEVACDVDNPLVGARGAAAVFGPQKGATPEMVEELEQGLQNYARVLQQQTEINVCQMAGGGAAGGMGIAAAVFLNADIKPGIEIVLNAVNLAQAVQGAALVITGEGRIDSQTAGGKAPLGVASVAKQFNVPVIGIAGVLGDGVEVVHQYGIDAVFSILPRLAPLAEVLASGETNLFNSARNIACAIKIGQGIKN
Chain of Long-chain fatty acid transport protein (Escherichia coli (strain K12)) (P10384 whole entry): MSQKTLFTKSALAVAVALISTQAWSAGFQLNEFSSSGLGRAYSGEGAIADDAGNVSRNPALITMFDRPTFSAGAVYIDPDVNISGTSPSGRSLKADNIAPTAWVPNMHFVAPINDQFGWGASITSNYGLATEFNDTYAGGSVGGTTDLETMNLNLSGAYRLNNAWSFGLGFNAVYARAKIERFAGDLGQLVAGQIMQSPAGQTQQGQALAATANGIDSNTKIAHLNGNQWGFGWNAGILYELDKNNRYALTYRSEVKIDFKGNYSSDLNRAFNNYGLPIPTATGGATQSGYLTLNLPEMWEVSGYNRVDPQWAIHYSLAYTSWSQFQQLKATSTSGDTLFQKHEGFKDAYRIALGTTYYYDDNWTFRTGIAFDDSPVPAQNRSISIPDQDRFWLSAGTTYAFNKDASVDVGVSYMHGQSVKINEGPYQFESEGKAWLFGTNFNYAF
Chain of 4-hydroxy-tetrahydrodipicolinate reductase (Escherichia coli (strain K12)) (P04036 whole entry): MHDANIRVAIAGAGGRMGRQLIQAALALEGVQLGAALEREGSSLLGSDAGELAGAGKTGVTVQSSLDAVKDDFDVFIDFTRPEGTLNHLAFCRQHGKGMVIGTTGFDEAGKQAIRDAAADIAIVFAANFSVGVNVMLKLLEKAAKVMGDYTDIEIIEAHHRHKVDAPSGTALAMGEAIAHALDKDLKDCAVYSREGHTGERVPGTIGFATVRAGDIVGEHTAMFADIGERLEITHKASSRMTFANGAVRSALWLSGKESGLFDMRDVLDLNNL
Chain of Antitoxin YefM (Escherichia coli (strain K12)) (P69346 whole entry): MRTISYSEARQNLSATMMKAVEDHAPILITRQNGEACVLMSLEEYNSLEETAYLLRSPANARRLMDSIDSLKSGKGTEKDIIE
Chain of Cell division protein FtsX (Escherichia coli (strain K12)) (P0AC30 whole entry): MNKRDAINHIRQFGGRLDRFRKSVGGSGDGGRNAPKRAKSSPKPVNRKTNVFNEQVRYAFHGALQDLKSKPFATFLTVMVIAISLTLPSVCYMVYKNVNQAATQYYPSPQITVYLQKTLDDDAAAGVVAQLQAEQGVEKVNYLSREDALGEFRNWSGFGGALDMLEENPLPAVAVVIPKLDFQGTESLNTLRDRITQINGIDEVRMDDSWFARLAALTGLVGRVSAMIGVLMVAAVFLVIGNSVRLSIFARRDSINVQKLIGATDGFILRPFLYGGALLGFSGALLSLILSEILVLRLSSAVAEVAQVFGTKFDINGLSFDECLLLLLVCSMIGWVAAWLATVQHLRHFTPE
Chain of Glutamyl-tRNA reductase (Escherichia coli (strain K12)) (P0A6X1 whole entry): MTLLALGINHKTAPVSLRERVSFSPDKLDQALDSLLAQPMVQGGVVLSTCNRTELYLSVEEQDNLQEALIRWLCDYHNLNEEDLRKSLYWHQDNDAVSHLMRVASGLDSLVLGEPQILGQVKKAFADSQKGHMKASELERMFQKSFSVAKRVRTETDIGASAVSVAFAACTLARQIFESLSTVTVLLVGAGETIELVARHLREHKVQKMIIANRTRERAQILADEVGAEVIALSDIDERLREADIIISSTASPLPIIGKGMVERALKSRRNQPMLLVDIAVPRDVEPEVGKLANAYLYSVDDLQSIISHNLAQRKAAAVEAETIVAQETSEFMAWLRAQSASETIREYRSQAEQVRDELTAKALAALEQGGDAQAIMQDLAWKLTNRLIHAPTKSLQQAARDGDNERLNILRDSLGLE
Chain of UDP-N-acetylglucosamine 1-carboxyvinyltransferase (Escherichia coli K-12) (P0A749 whole entry): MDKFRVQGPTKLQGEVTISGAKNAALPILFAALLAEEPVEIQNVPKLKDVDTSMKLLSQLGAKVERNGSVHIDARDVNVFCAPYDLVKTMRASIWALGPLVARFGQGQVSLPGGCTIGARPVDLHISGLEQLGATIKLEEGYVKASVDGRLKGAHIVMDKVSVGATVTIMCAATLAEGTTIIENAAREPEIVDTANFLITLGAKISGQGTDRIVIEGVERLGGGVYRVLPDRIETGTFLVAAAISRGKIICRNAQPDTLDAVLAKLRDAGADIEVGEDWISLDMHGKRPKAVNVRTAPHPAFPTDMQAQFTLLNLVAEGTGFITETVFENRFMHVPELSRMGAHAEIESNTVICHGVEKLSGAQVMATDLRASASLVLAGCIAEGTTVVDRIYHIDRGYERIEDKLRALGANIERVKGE
Chain of Transcriptional regulatory protein BaeR (Escherichia coli (strain K12)) (P69228 whole entry): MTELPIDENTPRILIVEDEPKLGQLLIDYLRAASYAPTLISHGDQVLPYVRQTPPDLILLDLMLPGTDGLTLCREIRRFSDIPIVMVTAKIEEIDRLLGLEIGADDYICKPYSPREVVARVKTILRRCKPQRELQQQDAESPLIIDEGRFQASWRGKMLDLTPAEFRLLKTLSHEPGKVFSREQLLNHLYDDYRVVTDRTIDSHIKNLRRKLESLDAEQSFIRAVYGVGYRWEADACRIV
Chain of Phosphatidylglycerol--prolipoprotein diacylglyceryl transferase (Escherichia coli (strain K12)) (P60955 whole entry): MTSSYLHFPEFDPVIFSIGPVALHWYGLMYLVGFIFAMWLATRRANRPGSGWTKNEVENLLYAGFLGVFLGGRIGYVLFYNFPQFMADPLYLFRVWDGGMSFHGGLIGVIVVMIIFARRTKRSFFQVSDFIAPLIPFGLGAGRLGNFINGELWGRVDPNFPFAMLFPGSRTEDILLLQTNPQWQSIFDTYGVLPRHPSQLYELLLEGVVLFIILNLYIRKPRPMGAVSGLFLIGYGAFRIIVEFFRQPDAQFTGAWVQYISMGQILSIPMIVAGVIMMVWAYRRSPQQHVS

## Clc1ccc(CSC2=NCN(CCc3ccccc3)CN2)cc1
Escherichia coli [1]
  MIC: 8 µg/mL (≈ 23.1 µM)

## COc1cccc(CCN2CN=C(SCc3ccc(Cl)cc3)NC2)c1
Escherichia coli [1]
  MIC: 16 µg/mL (≈ 42.6 µM)

## COc1ccc(CCN2CN=C(SCc3ccc(Br)cc3)NC2)cc1OC
Escherichia coli [1]
  MIC: 8 µg/mL (≈ 17.8 µM)

## COc1ccc(CCN2CN=C(SCc3ccc(Cl)cc3)NC2)cc1
Escherichia coli [1]
  MIC: 64 µg/mL (≈ 170 µM)

## Cc1cc(NS(=O)(=O)c2ccc(N)cc2)no1
[2]
  inhibition: Active
[3]
  inhibition: Active
[4]
  inhibition: Active
[5]
  inhibition: Active
[6]
  inhibition: Active
[7]
  inhibition: Active
[8]
  inhibition: Active

## COc1ccc(CCN2CN=C(SCc3cccc(Cl)c3)NC2)cc1OC
Escherichia coli [1]
  MIC: > 256 µg/mL

## COc1ccc(CCN2CN=C(SCc3ccc(I)cc3)NC2)cc1OC
Escherichia coli [1]
  MIC: 256 µg/mL (≈ 515 µM)

## CN[C@@H]1[C@H](O)[C@H](NC)[C@H]2O[C@@]3(O)C(=O)C[C@@H](C)O[C@H]3O[C@@H]2[C@H]1O
[2]
  inhibition: Active
[4]
  inhibition: Active
[5]
  inhibition: Active
[6]
  inhibition: Active

## COc1cc(Cc2cnc(N)nc2N)cc(OC)c1OC
[4]
  inhibition: Active

## COc1ccc(CN2CN=C(SCc3ccc(Cl)cc3)NC2)cc1OC
Escherichia coli [1]
  MIC: 32 µg/mL (≈ 81.6 µM)

## COc1ccc(CCN2CN=C(SCc3ccc(C)cc3)NC2)cc1OC
Escherichia coli [1]
  MIC: 64 µg/mL (≈ 166 µM)

## COc1ccc(CCN2CN=C(SCc3ccccc3Cl)NC2)cc1OC
Escherichia coli [1]
  MIC: > 256 µg/mL

## COc1ccc(CCN2CN=C(SCc3ccc([N+](=O)[O-])cc3)NC2)cc1OC
Escherichia coli [1]
  MIC: > 256 µg/mL

## O=CN(O)CCCP(=O)(O)O
[9]
  inhibition: Active
[10]
  inhibition: Active
[11]
  inhibition: Active
[12]
  inhibition: Active
[13]
  inhibition: Active
[14]
  inhibition: Active
[15]
  inhibition: Active
[16]
  inhibition: Active
[3]
  inhibition: Active
[17]
  inhibition: Active
[18]
  inhibition: Active
[19]
  inhibition: Active
[20]
  inhibition: Active
[21]
  inhibition: Active
[22]
  inhibition: Active
[23]
  inhibition: Active
[24]
  inhibition: Active
[6]
  inhibition: Active
[25]
  inhibition: Active
[26]
  inhibition: Active
[27]
  inhibition: Active
[7]
  inhibition: Active
[28]
  inhibition: Active
[29]
  inhibition: Active
[30]
  inhibition: Active

## COc1ccc(CCN2CN=C(SCc3ccccc3)NC2)cc1OC
Escherichia coli [31]
  MIC: 8 µg/mL (≈ 21.5 µM)
[32]
  MIC: 16 µg/mL (≈ 43.1 µM)
HeLa
  Activity: > 256 µg/mL
Candida albicans
  MIC: > 256 µg/mL
Bacillus subtilis
  MIC: > 256 µg/mL
Burkholderia cepacia
  MIC: 128 µg/mL (≈ 345 µM)
Staphylococcus aureus
  MIC: > 256 µg/mL
Micrococcus luteus
  MIC: > 256 µg/mL
Pseudomonas aeruginosa
  MIC: 32 µg/mL (≈ 86.1 µM)
Escherichia coli [1]
  MIC: 256 µg/mL (≈ 689 µM)

## COc1ccc(CSC2=NCN(CCc3ccc(OC)c(OC)c3)CN2)cc1
Escherichia coli [1]
  MIC: 512 µg/mL (≈ 1280 µM)

## CN1CN=C(SCc2ccc(Cl)cc2)NC1
Escherichia coli [31]
  MIC: 256 µg/mL (≈ 1000 µM)
[32]
  MIC: > 256 µg/mL
HeLa
  Activity: > 256 µg/mL
Candida albicans
  MIC: > 256 µg/mL
Bacillus subtilis
  MIC: > 256 µg/mL
Burkholderia cepacia
  MIC: > 256 µg/mL
Staphylococcus aureus
  MIC: > 256 µg/mL
Micrococcus luteus
  MIC: > 256 µg/mL
Pseudomonas aeruginosa
  MIC: > 256 µg/mL
Escherichia coli [1]
  MIC: 8 µg/mL (≈ 31.3 µM)

## COc1ccc(CCN2CN=C(SCc3ccc(Cl)c(Cl)c3)NC2)cc1OC
Escherichia coli [1]
  MIC: 8 µg/mL (≈ 18.2 µM)

## CCN1CN=C(SCc2ccc(Cl)cc2)NC1
Escherichia coli [1]
  MIC: 8 µg/mL (≈ 29.7 µM)

## COc1ccc(CCN2CN=C(SCc3cc(Cl)cc(Cl)c3)NC2)cc1OC
Escherichia coli [1]
  MIC: 16 µg/mL (≈ 36.3 µM)

## Clc1ccc(CCN2CN=C(SCc3ccc(Cl)cc3)NC2)cc1
Escherichia coli [1]
  MIC: 32 µg/mL (≈ 84.1 µM)
